In PMC3124571 (Biochemical pharmacology, 2011):
Like-named read-outs stand apart in the source and are kept apart here.

Legend:
[1] = molecular target: carbonyl-reducing enzymes of baboon hepatic microsomes; assay type: biochemical; details: read-out: IC50 (TB formation, hepatic microsomes); n = 3
[2] = molecular target: carbonyl-reducing enzymes of baboon placental microsomes; assay type: biochemical; details: read-out: IC50 (TB formation, placental microsomes)
[3] = molecular target: carbonyl-reducing enzymes of baboon placental microsomes; assay type: biochemical; details: read-out: IC50 (EB formation, placental microsomes)
[4] = tested on: TB formation (bupropion carbonyl reduction); carbonyl reductase (menadione), aldo-ketoreductase (flufenamic acid); experiment: in vitro; details: baboon (Papio cynocephalus), liver microsomes, probe bupropion 30 µM (≈Km)
[5] = tested on: EB formation (bupropion carbonyl reduction); carbonyl reductase (menadione), aldo-ketoreductase (flufenamic acid); experiment: in vitro; details: baboon (Papio cynocephalus), placental microsomes, probe bupropion 30 µM (≈Km)
[6] = tested on: TB formation (bupropion carbonyl reduction); carbonyl reductase (menadione), aldo-ketoreductase (flufenamic acid); experiment: in vitro; details: baboon (Papio cynocephalus), placental microsomes, probe bupropion 30 µM (≈Km)
[7] = tested on: EB formation (bupropion carbonyl reduction); aldo-ketoreductase (flufenamic acid); experiment: in vitro; details: baboon (Papio cynocephalus), liver microsomes, probe bupropion 30 µM (≈Km)
[8] = tested on: TB and EB formation by baboon hepatic microsomes; details: hepatic microsomes 1 mg/ml, bupropion 30 µM, 40 min; menadione 100µM, 18β-GA 0.1µM, flufenamic acid 5µM, barbital, 4-methylpyrazole, dicumarol 500µM
[9] = tested on: TB and EB formation by baboon placental microsomes; details: placental microsomes 1 mg/ml, bupropion 30 µM, 40 min; menadione 100µM, 18β-GA 0.1µM, flufenamic acid 5µM, barbital, 4-methylpyrazole, dicumarol 500µM
[10] = Biotransformation of bupropion by baboon hepatic microsomes; details: female, baboon (Papio cynocephalus), liver microsomes, pH 7.4, apparent Km
[11] = tested on: baboon hepatic microsomes; experiment: as above
[12] = Biotransformation of bupropion by baboon placental microsomes; details: baboon (Papio cynocephalus), pH 7.4, apparent Km
[13] = tested on: OH-BUP formation by baboon hepatic microsomes

CC1(C)[C@@H](O)CC[C@]2(C)[C@H]3C(=O)C=C4[C@@H]5C[C@@](C)(C(=O)O)CC[C@]5(C)CC[C@@]4(C)[C@]3(C)CC[C@@H]12 [18β-GA, 18β-glycyrrhetinic acid]
IC50 [1]: 0.015 µM
IC50 [2]: 0.025 µM
IC50 [3]: 0.022 µM

CC1=CC(=O)c2ccccc2C1=O [menadione]
IC50 at 40 min [4]: 47 µM
IC50 at 40 min [5]: 30.3 µM
IC50 at 40 min [6]: 27.9 µM

O=C(O)c1ccccc1Nc1cccc(C(F)(F)F)c1 [flufenamic acid]
IC50 at 40 min [7]: 7.7 µM
IC50 at 40 min [4]: 11.4 µM
inhibition at 40 min [4]: 40%
IC50 at 40 min [5]: 5.6 µM
inhibition at 40 min [5]: 40%
IC50 at 40 min [6]: 9.9 µM
inhibition at 40 min [6]: 40%

CC1(C)[C@@H](O)CC[C@]2(C)[C@H]3C(=O)C=C4[C@@H]5C[C@@](C)(C(=O)O)CC[C@]5(C)CC[C@@]4(C)[C@]3(C)CC[C@@H]12 [18β-glycyrrhetinic acid]
inhibition of TB formation [8]: 80%
inhibition of EB formation [9]: 80%
inhibition of TB formation [9]: 80%

CCC1(CC)C(=O)NC(=O)NC1=O [barbital]
inhibition of EB formation [8]: did not affect
inhibition of TB formation [8]: did not affect
inhibition of EB formation [9]: did not affect
inhibition of TB formation [9]: did not affect

CC(NC(C)(C)C)C(=O)c1cccc(Cl)c1 (stereo not shown) [bupropion]
Km at 30 min ([10]; hydroxylation of bupropion to OH-BUP, bupropion 10–400µM): 36 ± 6 µM
Km at 30 min ([10]; reduction of bupropion to EB): 32 ± 3 µM
Km at 30 min ([10]; reduction of bupropion to TB): 28 ± 2 µM
Vmax, EB formation [11]: 46 ± 8 pmol mgprotein^−1 min^−1
Vmax, TB formation [11]: 116 ± 19 pmol mgprotein^−1 min^−1
Km at 40 min ([12]; reduction of bupropion to EB): 32 ± 14 µM
Km at 40 min ([12]; reduction of bupropion to TB): 20 ± 14 µM

C=C(C)[C@@H]1CCC2=CC(=O)C[C@@H](C)[C@]2(C)C1 [(+)-nootkatone]
inhibition [13]: 10 to 15%
